Test results: paper PMC12615485, “New dengue virus inhibitors targeting NS3-NS5 interaction identified by in silico screening” (Frontiers in Microbiology, 2025)
“Also recorded” adds a separate entry of the source. Read-outs that look alike come from different tables or passages of the source.

Tests used:
[1] = biological target: NS3-NS5 interaction (NS3 f.l. binding to coated 6His-NS5_270–900) (Dengue virus type 2, UniProt P14340); assay: ELISA-based NS3-NS5 interaction assay; set-up: species or system DENV-2; conditions: for IC50: read-out: In vitro activity IC50
Description: Nunc Maxisorp microplates (Thermo Fisher Scientific) were coated with 400 ng/well of 6His-NS5_270–900, or GST protein as a control, in PBS for 3 h at 37 °C and then blocked with 5% (wt/v) bovine serum albumin (BSA, Merck Life Science) in PBS overnight at 4 °C. Blocked wells were incubated at room temperature (RT) for 2 h with increasing amounts of NS3 f.l. or GST–NS3_172–618. 6His-NS5_270–900-coated plates were also incubated with increasing concentration of GST, as a control. After washing with PBS containing 0.3% Tween 20 (Fisher Scientific, Waltham, MA, United States), the NS3-NS5 interaction was detected by incubating the plates with the anti-NS3 monoclonal antibody (GT2811 clone, Genetex, Irvine, CA, United States) diluted 1:6,000 in PBS + 2% (v/v) FBS (Thermo Fisher Scientific) for 1 h at RT. The unbound primary antibody was removed by further washes with PBS + 0.3% Tween 20 and the secondary goat anti-mouse HRP-conjugated antibody (GenScript Biotech) at a dilution of 1:8,000 in PBS + 2% FBS was then added. After incubation for 1 h at RT and following washes, the colorimetric substrate 3,3′,5,5′-tetramethylbenzidine (TMB, SeraCare Life Sciences, Milford, MA, United States) was added to each well and absorbance was read at 450 nm by an ELISA plate reader (Tecan Infinite 200 PRO, Mannedorf, Switzerland).
To test the inhibitory effect of compounds on NS3-NS5 interaction, 6His-NS5_270–900-coated wells were incubated with a fixed amount of NS3 f.l. (200 ng) along with increasing concentrations of test compounds or DMSO as a control. To exclude non-specific inhibition of compounds due to colloidal aggregation, the inhibitory activities of compounds were tested in the presence or the absence of 0.002% Triton X-100 (Fisher Scientific), a condition which reverses and prevents the colloidal formation of organic molecules ([McGovern et al., 2003]). All the compound concentrations were tested at least in duplicate.

DENV-2 NGC strain = assay: Plaque reduction assay (PRA) in Vero cells; type: cell-based; conditions: for EC50: PRA in Vero cells, read-out: Antiviral activity EC50; for SI (selectivity index): ratio between CC50 and EC50
DENV-1 (TH-Sman strain) = assay: Viral RNA reduction assay (RT-qPCR) in Vero cells; type: cell-based; conditions: DENV-1, Vero cells, RT-qPCR at 72 h p.i.
Description: (§1) For viral RNA reduction assays with DENV serotypes 1 to 4, Vero cells were seeded at a density of 1 × 10^5 cells per well in 24-well plates. The next day, cells were infected at 37 °C with the different viruses in serum-free DMEM at the multiplicity of infection (MOI) of 0.001 and plates were rocked every 15 min. At the end of incubation, the viral inoculum was removed, and medium with 2% FBS containing various concentrations of test compounds was added. Viral RNA was isolated from the culture supernatant at 72 h p.i., using the PureLink Viral RNA/DNA Mini kit (Invitrogen, Waltham, MA, United States), according to the manufacturer’s instructions. Viral RNA was quantified using the One-Step RT-PCR kit Dengue Virus subtypes 1, 2, 3 and 4 PCRmax (Cole Parmer Instrument, Saint Neots, United Kingdom), according to the manufacturer’s instructions, on a 7,000 Real-time PCR platform (Applied Biosystems, Waltham, MA, United States).

DENV-2 (NGC strain) = assay: Viral RNA reduction assay (RT-qPCR) in Vero cells; type: cell-based; conditions: DENV-2, Vero cells, RT-qPCR at 72 h p.i.
Description: as §1

DENV-3 (H-87 strain) = assay: Viral RNA reduction assay (RT-qPCR) in Vero cells; type: cell-based; conditions: DENV-3, Vero cells, RT-qPCR at 72 h p.i.
Description: as §1

DENV-4 (H-241 strain) = assay: Viral RNA reduction assay (RT-qPCR) in Vero cells; type: cell-based; conditions: DENV-4, Vero cells, RT-qPCR at 72 h p.i.
Description: as §1

[2] = biological target: NS5-RdRp (NHS-NS5_270–900) (Dengue virus type 2, UniProt P14340); assay: Microscale thermophoresis (MST) binding to labeled NS5-RdRp; set-up: species or system DENV-2; conditions: medium MST power, 40% LED power
Excerpt: (§2) To obtain the purified helicase portion of NS3 (6His-NS3_177–618) and the main protease of SARS-CoV-2 (6His-M^pro) used for the MST analysis, we followed previously described protocols ([Celegato et al., 2023]; [Mercorelli et al., 2022]). The 6His–NS5 RdRp270–900 protein was expressed and purified as described above. For MST studies, 6His-NS5_270–900, 6His-NS3_177–618, and 6His-M^pro were fluorescently labeled using NanoTemper Protein labeling kit RED-NHS 2nd generation (MO-L011, NanoTemper Technologies GmbH, Munich, Germany). Protein and dye concentrations were determined by absorption spectroscopy using NanoDrop™ One spectrophotometer (ThermoFisher Scientific), considering, at 280 nm, ε = 171,350 M^–1cm^1 for recombinant NS5, ε = 66,140 M^–1cm^1 for NS3, ε = 32,890 M^–1cm^1 for M^pro, respectively. The ε = 195,000 M^1cm^1 at 650 nm was considered for the RED-NHS fluorophore, with a correction factor of 0.04. The degree of labeling (DOL) was calculated according to the manufacturer’s instructions, yielding a value of 0.63 for NHS-NS5, 0.98 for NHS-NS3, and 0.60 for NHS-M^pro, respectively. […] In all experiments, signal quality was monitored by the Monolith device to detect possible ligand auto-fluorescence, aggregation, or target protein adsorption to capillaries. Experiments were performed in triplicates and analyzed with the MO. […]

[3] = biological target: NS3-hel (NHS-NS3_177–618) (Dengue virus type 2, UniProt P14340); assay: Microscale thermophoresis (MST) binding to labeled NS3-hel; set-up: species or system DENV-2; conditions: same test concentrations (serial dilutions from 250 μM), 60% LED power
Excerpt: as §2

SARS-CoV-2 M^pro = SARS-CoV-2 M^pro (Severe acute respiratory syndrome coronavirus 2, UniProt P0DTD1); conditions: MST binding check, up to 125 μM compound concentration
MTT cytotoxicity assay = conditions: African green monkey, Vero cells
Vero cells = assay: MTT cytotoxicity assay; conditions: read-out: Cytotoxicity CC50; best analogues of hit 3, in-house synthesized hit 3 as control; MTT in Vero cells at 72 h

Cc1ccc(NC(=S)NNC(=O)c2ccccc2O)cc1 [Hit 3]
IC50 ([1]; analogues of hit 3, in-house synthesized hit 3 as control, 50% inhibition of NS3-NS5 binding in ELISA): 19.4 ± 7.8 µM | inhibition at 100 µM ([1]; fixed concentration of 100 μM, compared with DMSO control): ≥ 50% | IC50 ([1]; selected hits, concentration that decreased the NS3-NS5 binding by 50% in ELISA): 15.6 ± 4.5 µM | EC50 (DENV-2 NGC strain; Dengue virus, DENV2, Vero, best analogues of hit 3, in-house synthesized hit 3 as control, NGC strain): 1.8 ± 0.6 µM | EC50 (DENV-2 NGC strain; Dengue virus, DENV2, Vero, selected hits, 50% inhibition of viral plaque formation, DENV-2): 1.93 µM | SI (selectivity index) (DENV-2 NGC strain; best analogues of hit 3): >130 | EC50 (DENV-2 NGC strain; selected hits, 50% inhibition of viral plaque formation, DENV-2): 1.9 ± 0.3 µM | SI (selectivity index) (DENV-2 NGC strain; selected hits): >130 | viral RNA synthesis (DENV-1 (TH-Sman strain)): concentration-dependent reduction in viral RNA synthesis | viral RNA synthesis (DENV-2 (NGC strain)): concentration-dependent reduction in viral RNA synthesis | viral RNA synthesis (DENV-3 (H-87 strain)): concentration-dependent reduction in viral RNA synthesis | viral RNA synthesis (DENV-4 (H-241 strain)): concentration-dependent reduction in viral RNA synthesis | Kd [2]: 28.8 ± 4.5 µM | binding to NS3-hel [3]: not able to detect the binding; also recorded: no binding was observed | binding to SARS-CoV-2 M^pro (SARS-CoV-2 M^pro): No binding was detected | CC50 at 72 h (MTT cytotoxicity assay): > 250 µM | CC50 (Vero cells): > 250 µM
